Laboratory results taken from US9850283B2, “Macrocyclic inhibitors of the PD-1/PD-L1 and CD80(B7-1)/PD-L1 protein/protein interactions” (BRISTOL-MYERS SQUIBB COMPANY, priority 2013, dated 2017).
Like-named read-outs stand apart in the source and are kept apart here. Positions of bridges follow the written chain, without caps; N, C: chain ends. Non-standard residues stand in square brackets, D forms with d. Residues, ends and D or L forms follow the SMILES beside them. ξ: configuration not given here. Pro(5S-Me) = C[C@H]1CC[C@@H](C(=O)O)N1; d(cisHyp) = O=C(O)[C@H]1C[C@@H](O)CN1; Bta = N[C@@H](Cc1csc2ccccc12)C(=O)O; Hyp = O=C(O)[C@@H]1C[C@@H](O)CN1; NMehSer = CN[C@@H](CCO)C(=O)O; NMeNle = CCCC[C@H](NC)C(=O)O; NMeA = CN[C@@H](C)C(=O)O; ξhCys = NC(CCS)C(=O)O; ξC = NC(CS)C(=O)O

Assays:
[1] = molecular target: T1, Human PD-L1/PD-1 (Homo sapiens, UniProt Q9NZQ7); test: HTRF PD-1-Ig/PD-L1-His binding assay (human PD-L1)
T1 construct: made in house; host or cells: HEK293T
Outline: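 Soluble Fc-fused PD-1 and His-tagged PD-L1 (truncated before the transmembrane region) were combined in dPBS with 0.1% (w/v) BSA and 0.05% (v/v) Tween-20. Binding was read by HTRF using europium cryptate anti-Ig antibody (1 nM final) and APC anti-His antibody (20 nM final).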

[2] = molecular target: T2, LK35.2-hPD-L1 cells / PE-labeled PD-1-Ig (Homo sapiens, UniProt Q9NZQ7); test: LK35.2-hPD-L1 cell binding high-content screening assay; format: cell-based; settings: cell binding assay, cell line not given
T2 construct: expressed in transfected cells; host or cells: LK35.2 mouse B cell line
Outline: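 Mouse LK35.2 B cells stably over-expressing human PD-L1, cultured overnight, treated with compound plus PE-labeled human PD-1-Ig (1 nM final) in RPMI/10% FCS for 1 h at 37 °C. After washing, bound fluorescence quantified by high-content imaging.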

[3] = cluster symbol, read-out: HTRF IC50 cluster
[4] = cluster symbol, read-out: CBA IC50 cluster
[5] = numeric value, read-out: HTRF IC50 values
[6] = numeric value, read-out: CBA IC50 values

T1 sequence (Q9NZQ7 with tags, fused parts or gaps): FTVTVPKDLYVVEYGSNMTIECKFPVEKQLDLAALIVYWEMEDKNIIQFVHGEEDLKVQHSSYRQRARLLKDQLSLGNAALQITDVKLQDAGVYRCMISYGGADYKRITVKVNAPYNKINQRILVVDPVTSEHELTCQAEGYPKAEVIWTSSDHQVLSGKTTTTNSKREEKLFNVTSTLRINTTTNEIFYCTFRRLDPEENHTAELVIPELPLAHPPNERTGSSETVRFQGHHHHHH
T2 sequence (Q9NZQ7 19-290): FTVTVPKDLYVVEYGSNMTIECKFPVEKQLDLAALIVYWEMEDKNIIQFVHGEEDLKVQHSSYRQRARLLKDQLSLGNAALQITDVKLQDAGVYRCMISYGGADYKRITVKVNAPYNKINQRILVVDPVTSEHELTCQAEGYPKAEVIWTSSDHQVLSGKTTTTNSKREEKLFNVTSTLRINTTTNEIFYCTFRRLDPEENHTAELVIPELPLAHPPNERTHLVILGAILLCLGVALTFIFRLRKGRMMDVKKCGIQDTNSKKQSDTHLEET

| Structure (SMILES) | IC50 [1, 3] [nM] | IC50 [2, 4] [nM] | IC50 [1, 5] [nM] | IC50 [2, 6] [nM] |
| --- | --- | --- | --- | --- |
| CCCC[C@H]1C(=O)N[C@@H](CCCNC(=N)N)C(=O)N[C@H](C(=O)NCC(N)=O)CSCC(=O)N[C@@H](Cc2ccc(O)cc2)C(=O)N(C)[C@@H](C)C(=O)N[C@@H](CC(N)=O)C(=O)N2CCC[C@H]2C(=O)N[C@@H](Cc2cnc[nH]2)C(=O)N[C@@H](CC(C)C)C(=O)N2C[C@H](O)C[C@@H]2C(=O)N[C@@H](Cc2c[nH]c3ccccc23)C(=O)N[C@@H](CO)C(=O)N[C@@H](Cc2csc3ccccc23)C(=O)N(C)[C@@H](CCOC)C(=O)N1C [Example 9007] ({CH2CO}-Y[NMeA]NPHL[d(cisHyp)]WS[Bta][NMehSer](Me)[NMeNle]RCG-NH2; thioether N-14) | 0.385 to 6.74 | 0.158 to 4.71 |  |  |
| CCCC[C@H]1C(=O)N(C)[C@@H](CCOC)C(=O)N[C@@H](CCCNC(=N)N)C(=O)NC(C(=O)NCC(N)=O)CSCC(=O)N[C@@H](Cc2ccc(O)cc2)C(=O)N(C)[C@@H](C)C(=O)N[C@@H](CC(=O)O)C(=O)N2CCC[C@H]2C(=O)N[C@@H](Cc2cnc[nH]2)C(=O)N[C@@H](CC(C)C)C(=O)N2CCC[C@H]2C(=O)N[C@@H](Cc2c[nH]c3ccccc23)C(=O)N[C@@H](CO)C(=O)N[C@@H](Cc2csc3ccccc23)C(=O)N1C (stereo partly shown) [Example 9008] ({CH2CO}-Y[NMeA]DPHLPWS[Bta][NMeNle][NMehSer](Me)R[ξC]G-NH2; thioether N-14) | 0.385 to 6.74 | 0.158 to 4.71 |  |  |
| CCCC[C@H]1C(=O)N[C@@H](CCCNC(=N)N)C(=O)NC(C(=O)NCC(N)=O)CSCC(=O)N[C@@H](Cc2ccc(O)cc2)C(=O)N(C)[C@@H](C)C(=O)N[C@@H](CC(=O)O)C(=O)N2CCC[C@H]2C(=O)N[C@@H](Cc2cnc[nH]2)C(=O)N[C@@H](CC(C)C)C(=O)N2CCC[C@H]2C(=O)N[C@@H](Cc2c[nH]c3ccccc23)C(=O)N[C@@H](CO)C(=O)N[C@@H](Cc2csc3ccccc23)C(=O)N(C)[C@@H](CCOC)C(=O)N1C (stereo partly shown) [Example 9009] ({CH2CO}-Y[NMeA]DPHLPWS[Bta][NMehSer](Me)[NMeNle]R[ξC]G-NH2; thioether N-14) | 6.76 to 30.3 | 4.78 to 72.9 |  |  |
| CCCC[C@H]1C(=O)N[C@@H](CCCNC(=N)N)C(=O)NC(C(=O)NCC(N)=O)CSCC(=O)N[C@@H](Cc2ccc(O)cc2)C(=O)N(C)[C@@H](C)C(=O)N[C@@H](CC(=O)O)C(=O)N2CCC[C@H]2C(=O)N[C@@H](Cc2cnc[nH]2)C(=O)N[C@@H](CC(C)C)C(=O)N2CCC[C@H]2C(=O)N[C@@H](Cc2c[nH]c3ccccc23)C(=O)N[C@@H](CO)C(=O)N[C@@H](Cc2c[nH]c3ccccc23)C(=O)N(C)[C@@H](CCOC)C(=O)N1C (stereo partly shown) [Example 9010] ({CH2CO}-Y[NMeA]DPHLPWSW[NMehSer](Me)[NMeNle]R[ξC]G-NH2; thioether N-14) | 6.76 to 30.3 | 4.78 to 72.9 |  |  |
| CCCC[C@H]1C(=O)N(C)[C@@H](CCCC)C(=O)N[C@@H](CCCNC(=N)N)C(=O)NC(C(=O)NCC(N)=O)CSCC(=O)N[C@@H](Cc2ccc(O)cc2)C(=O)N(C)[C@@H](C)C(=O)N[C@@H](CC(N)=O)C(=O)N2C[C@H](O)C[C@H]2C(=O)N[C@@H](Cc2cnc[nH]2)C(=O)N[C@@H](CC(C)C)C(=O)N2CCC[C@H]2C(=O)N[C@@H](Cc2c[nH]c3ccccc23)C(=O)N[C@@H](CO)C(=O)N[C@@H](Cc2c[nH]c3ccccc23)C(=O)N1C (stereo partly shown) [Example 9011] ({CH2CO}-Y[NMeA]N[Hyp]HLPWSW[NMeNle][NMeNle]R[ξC]G-NH2; thioether N-14) |  |  | 9.4 | 13.5 |
| CCCC[C@H]1C(=O)N(C)[C@@H](CCCC)C(=O)N[C@@H](CCCNC(=N)N)C(=O)NC(C(=O)NCC(N)=O)CSCC(=O)N[C@@H](Cc2ccc(O)cc2)C(=O)N(C)[C@@H](C)C(=O)N[C@@H](CC(N)=O)C(=O)N2C[C@H](O)C[C@H]2C(=O)N[C@@H](Cc2cnc[nH]2)C(=O)N[C@@H](CC(C)C)C(=O)N2C[C@H](O)C[C@H]2C(=O)N[C@@H](Cc2c[nH]c3ccccc23)C(=O)N[C@@H](CO)C(=O)N[C@@H](Cc2csc3ccccc23)C(=O)N1C (stereo partly shown) [Example 9012] ({CH2CO}-Y[NMeA]N[Hyp]HL[Hyp]WS[Bta][NMeNle][NMeNle]R[ξC]G-NH2; thioether N-14) | 6.76 to 30.3 | 0.158 to 4.71 |  |  |
| CCCC[C@H]1C(=O)N(C)[C@@H](CCCC)C(=O)N[C@@H](CCCNC(=N)N)C(=O)NC(C(=O)NCC(N)=O)CSCC(=O)N[C@@H](Cc2ccc(O)cc2)C(=O)N(C)[C@@H](C)C(=O)N[C@@H](CC(N)=O)C(=O)N2C[C@H](O)C[C@H]2C(=O)N[C@@H](Cc2cnc[nH]2)C(=O)N[C@@H](CC(C)C)C(=O)N2C[C@H](O)C[C@H]2C(=O)N[C@@H](Cc2c[nH]c3ccccc23)C(=O)N[C@@H](CO)C(=O)N[C@@H](Cc2c[nH]c3ccccc23)C(=O)N1C (stereo partly shown) [Example 9013] ({CH2CO}-Y[NMeA]N[Hyp]HL[Hyp]WSW[NMeNle][NMeNle]R[ξC]G-NH2; thioether N-14) |  |  | 8.11 | 5.97 |
| CCCC[C@H]1C(=O)N(C)[C@@H](CCCC)C(=O)N[C@@H](CCCNC(=N)N)C(=O)NC(C(=O)NCC(N)=O)CSCC(=O)N[C@@H](Cc2ccc(O)cc2)C(=O)N(C)[C@@H](C)C(=O)N[C@@H](CC(N)=O)C(=O)N2CCC[C@H]2C(=O)N[C@@H](Cc2cnc[nH]2)C(=O)N[C@@H](CC(C)C)C(=O)N2[C@@H](C)CC[C@H]2C(=O)N[C@@H](Cc2c[nH]c3ccccc23)C(=O)N[C@@H](CO)C(=O)N[C@@H](Cc2c[nH]c3ccccc23)C(=O)N1C (stereo partly shown) [Example 9014] | 0.385 to 6.74 | 0.158 to 4.71 |  |  |
| CCCC[C@H]1C(=O)N(C)[C@@H](CCCC)C(=O)N[C@@H](CCCNC(=N)N)C(=O)NC(C(=O)NCC(N)=O)CSCC(=O)N[C@@H](Cc2ccc(O)cc2)C(=O)N(C)[C@@H](C)C(=O)N[C@@H](CC(N)=O)C(=O)N2CCC[C@H]2C(=O)N[C@@H](Cc2cnc[nH]2)C(=O)N[C@@H](CC(C)C)C(=O)N2[C@@H](C)CC[C@H]2C(=O)N[C@@H](Cc2c[nH]c3ccccc23)C(=O)N[C@@H](CO)C(=O)N[C@@H](Cc2csc3ccccc23)C(=O)N1C (stereo partly drawn) [Example 9015] ({CH2CO}-Y[NMeA]NPHL[Pro(5S-Me)]WS[Bta][NMeNle][NMeNle]R[ξC]G-NH2; thioether N-14) | 6.76 to 30.3 | 0.158 to 4.71 |  |  |
| CCCC[C@H]1C(=O)N(C)[C@@H](CCCC)C(=O)N[C@@H](CCCNC(=N)N)C(=O)NC(C(=O)NCC(N)=O)CSCC(=O)N[C@@H](Cc2ccc(O)cc2)C(=O)N(C)[C@@H](C)C(=O)N[C@@H](CC(N)=O)C(=O)N2[C@@H](C)CC[C@H]2C(=O)N[C@@H](Cc2cnc[nH]2)C(=O)N[C@@H](CC(C)C)C(=O)N2CCC[C@H]2C(=O)N[C@@H](Cc2c[nH]c3ccccc23)C(=O)N[C@@H](CO)C(=O)N[C@@H](Cc2csc3ccccc23)C(=O)N1C (stereo partly drawn) [Example 9016] ({CH2CO}-Y[NMeA]N[Pro(5S-Me)]HLPWS[Bta][NMeNle][NMeNle]R[ξC]G-NH2; thioether N-14) |  |  | 5.94 | 3.28 |
| CCCC[C@H]1C(=O)N(C)[C@@H](CCCC)C(=O)N[C@@H](CCCNC(=N)N)C(=O)NC(C(=O)NCC(N)=O)CSCC(=O)N[C@@H](Cc2ccc(O)cc2)C(=O)N(C)[C@@H](C)C(=O)N[C@@H](CC(N)=O)C(=O)N2[C@@H](C)CC[C@H]2C(=O)N[C@@H](Cc2cnc[nH]2)C(=O)N[C@@H](CC(C)C)C(=O)N2CCC[C@H]2C(=O)N[C@@H](Cc2c[nH]c3ccccc23)C(=O)N[C@@H](CO)C(=O)N[C@@H](Cc2c[nH]c3ccccc23)C(=O)N1C (stereo partly drawn) [Example 9017] ({CH2CO}-Y[NMeA]N[Pro(5S-Me)]HLPWSW[NMeNle][NMeNle]R[ξC]G-NH2; thioether N-14) | 6.76 to 30.3 | 4.78 to 72.9 |  |  |
| CCCC[C@H]1C(=O)N(C)[C@@H](CCCC)C(=O)N[C@@H](CCCNC(=N)N)C(=O)NC(C(=O)NCC(N)=O)CCSCC(=O)N[C@@H](Cc2ccc(O)cc2)C(=O)N(C)[C@@H](C)C(=O)N[C@@H](CC(N)=O)C(=O)N2CCC[C@H]2C(=O)N[C@@H](Cc2cnc[nH]2)C(=O)N[C@@H](CC(C)C)C(=O)N2CCC[C@H]2C(=O)N[C@@H](Cc2c[nH]c3ccccc23)C(=O)N[C@@H](CO)C(=O)N[C@@H](Cc2csc3ccccc23)C(=O)N1C (stereo partly shown) [Example 9018] ({CH2CO}-Y[NMeA]NPHLPWS[Bta][NMeNle][NMeNle]R[ξhCys]G-NH2; thioether N-14) | 6.76 to 30.3 | > 74.3 |  |  |
| CCCC[C@H]1C(=O)N(C)[C@@H](CCCC)C(=O)N[C@@H](CCCNC(=N)N)C(=O)NC(C(=O)NCC(N)=O)CCSCC(=O)N[C@@H](Cc2ccc(O)cc2)C(=O)N(C)[C@@H](C)C(=O)N[C@@H](CC(N)=O)C(=O)N2CCC[C@H]2C(=O)N[C@@H](Cc2cnc[nH]2)C(=O)N[C@@H](CC(C)C)C(=O)N2CCC[C@H]2C(=O)N[C@@H](Cc2c[nH]c3ccccc23)C(=O)N[C@@H](CO)C(=O)N[C@@H](Cc2c[nH]c3ccccc23)C(=O)N1C (stereo partly shown) [Example 9019] ({CH2CO}-Y[NMeA]NPHLPWSW[NMeNle][NMeNle]R[ξhCys]G-NH2; thioether N-14) | 6.76 to 30.3 | > 74.3 |  |  |
| CCCC[C@H]1C(=O)N(C)[C@@H](CCCC)C(=O)N[C@@H](CCCNC(=N)N)C(=O)NC(C(=O)NCC(N)=O)CCSCC(=O)N[C@@H](Cc2ccc(O)cc2)C(=O)N(C)[C@@H](C)C(=O)N[C@@H](CC(N)=O)C(=O)N2CCC[C@H]2C(=O)N[C@@H](Cc2cnc[nH]2)C(=O)N[C@@H](CC(C)C)C(=O)N2C[C@H](O)C[C@H]2C(=O)N[C@@H](Cc2c[nH]c3ccccc23)C(=O)N[C@@H](CO)C(=O)N[C@@H](Cc2csc3ccccc23)C(=O)N1C (stereo partly shown) [Example 9020] ({CH2CO}-Y[NMeA]NPHL[Hyp]WS[Bta][NMeNle][NMeNle]R[ξhCys]G-NH2; thioether N-14) | 0.385 to 6.74 | 4.78 to 72.9 |  |  |
